# From patent US20140248221A1, “COMPOSITIONS FOR ORAL USE AND METHODS FOR TREATING THE ORAL MUCOSA, LIPS, AND PERIORAL REGIONS” (JR CHEM, LLC, priority 2011, published 2014)
# Assay: zone of inhibition activity
# Type: cell-based
# Conditions: compared with zn bacitracin
substance,measurement,value
Cu-zn bacitrate,zone of inhibition activity,greater zone of inhibition activity than zn bacitracin
